In patent US20250332266A1, “COMPOUNDS FOR THE DEGRADATION OF EGFR KINASE” (BeiGene Switzerland GmbH, priority 2022, published 2025):

Tests used:
[1] = biological target: EGFR Del19/T790M/C797S (H1975-clone #28) (Homo sapiens, UniProt P00533, T790M/C797S, form not given); assay: EGFR degradation, HTRF total-EGFR assay, H1975-clone #28 (DTC); assay type: cell-based; conditions: H1975-clone #28 Del19/T790M/C797S, 16 h treatment
From the text: (§1) H1975-clone #28 (Del19/T790M/C797S, or abbr: DTC), H1975-clone #23 (Del19/C797S, or abbr: DC), H1975-clone #25 (L858R/T790M/C797S, or abbr: LTC) and H1975-clone #8 (L858R/C797S, or abbr: LC). EGFR-Del19/T790M/C797S, EGFR-Del19/C797S, EGFR-L858R/T790M/C797S and EGFR-L858R/C797S were stably expressed in H1975 cell lines by lentivirus-mediated over-expression, respectively. The EGFR over-expressed cells then underwent knockout, in which the EGFR targeting sgRNA was designed to only target the endogenous EGFR copies and preserve the exogenous EGFR copies. Followed by the knockout, the edited H1975 cells were seeded in 96 well plates at the concentration of 1 cell/well, cultured for about 2 weeks to allow single clones formation. The formed clones were screened by DNA sequencing and whole exon sequencing analysis for the desired edition. H1975-clone #28, H1975-clone #23, H1975-clone #25 and H1975-clone #8 were finally confirmed as homozygous Del19/T790M/C797S EGFR, Del19/C797S EGFR, L858R/T790M/C797S EGFR and L858R/C797S EGFR clones, respectively.
(§2) H1975-#25, H1975-#28, H1975-#23 and H1975-#8 cells are treated with compounds diluted in 0.2% DMSO cell culture medium on day 2, incubate for 16 h, 37° C., 5% CO2. The final concentration of compounds in all assay is start with 10 μM, 5-fold dilution, total 8 doses were included.
(§3) Total-EGFR cellular kit(64NG1PEH) were used for evaluating EGFR degradation.
(§4) After 16 h treatment, add HTRF lysis buffer to each well; seal the plate and incubate 1 hour at room temperature on a plate shaker; Once the cells are lysed, 16 μL of cell lysate are transferred to a PE 384-well HTRF detection plate; 4 μL of pre-mixed HTRF antibodies are added to each well; cover the plate with a plate sealer, spin 1000 rpm for 1 min, incubate overnight at room temperature; read on BMG PheraStar with HTRF protocol (337 nm-665 nm-620 nm).
(§5) The inhibition (degradation) percentage of the compound was calculated by the following equation:
(§6) Inhibition percentage of Compound=100−100×(Signal−low control)/(High control−low control), wherein signal=each test compound group
(§7) High control=Cell group with added DMSO and without compound, indicating microplate readings without EGFR degradation.
(§8) Imax (Dmax) is the maximum percentage of inhibition (degradation).
(§9) The IC50 (DC50) value of a compound can be obtained by fitting the following equation
(§10) Wherein, X and Y are known values, and IC50, Hillslope, Top and Bottom are the parameters obtained by fitting with software. Y is the inhibition percentage (calculated from the equation), X is the concentration of the compound; IC50 is the concentration of the compound when the 50% inhibition is reached. The smaller the IC50 value is, the stronger the inhibitory ability of the compound is. Vice versa, the higher the IC50 value is, the weaker the ability the inhibitory ability of the compound is; Hillslope represents the slope of the fitted curve, generally around 1*; Bottom represents the minimum value of the curve obtained by data fitting, which is generally 0%±20%; Top represents the maximum value of the curve obtained by data fitting, which is generally 100%±20%. The experimental data were fitted by calculating and analyzing with Dotmatics data analysis software.

[2] = biological target: T1, EGFR L858R/T790M/C797S (H1975-clone #25) (Homo sapiens, UniProt P00533, C797S/L858R/T790M); assay: EGFR degradation, HTRF total-EGFR assay, H1975-clone #25 (LTC); assay type: cell-based; conditions: H1975-clone #25 L858R/T790M/C797S, 16 h treatment
T1 construct: expressed in transfected cells; host or cells: H1975 (clone #25), lentiviral transduction, endogenous EGFR knocked out
From the text: as §1, §2, §3, §4, §5, §6, §7, §8, §9, §10

Chain of EGFR Del19/T790M/C797S (H1975-clone #28) (P00533 with tags, fused parts or gaps DEL746-750/T790M/C797S, form open): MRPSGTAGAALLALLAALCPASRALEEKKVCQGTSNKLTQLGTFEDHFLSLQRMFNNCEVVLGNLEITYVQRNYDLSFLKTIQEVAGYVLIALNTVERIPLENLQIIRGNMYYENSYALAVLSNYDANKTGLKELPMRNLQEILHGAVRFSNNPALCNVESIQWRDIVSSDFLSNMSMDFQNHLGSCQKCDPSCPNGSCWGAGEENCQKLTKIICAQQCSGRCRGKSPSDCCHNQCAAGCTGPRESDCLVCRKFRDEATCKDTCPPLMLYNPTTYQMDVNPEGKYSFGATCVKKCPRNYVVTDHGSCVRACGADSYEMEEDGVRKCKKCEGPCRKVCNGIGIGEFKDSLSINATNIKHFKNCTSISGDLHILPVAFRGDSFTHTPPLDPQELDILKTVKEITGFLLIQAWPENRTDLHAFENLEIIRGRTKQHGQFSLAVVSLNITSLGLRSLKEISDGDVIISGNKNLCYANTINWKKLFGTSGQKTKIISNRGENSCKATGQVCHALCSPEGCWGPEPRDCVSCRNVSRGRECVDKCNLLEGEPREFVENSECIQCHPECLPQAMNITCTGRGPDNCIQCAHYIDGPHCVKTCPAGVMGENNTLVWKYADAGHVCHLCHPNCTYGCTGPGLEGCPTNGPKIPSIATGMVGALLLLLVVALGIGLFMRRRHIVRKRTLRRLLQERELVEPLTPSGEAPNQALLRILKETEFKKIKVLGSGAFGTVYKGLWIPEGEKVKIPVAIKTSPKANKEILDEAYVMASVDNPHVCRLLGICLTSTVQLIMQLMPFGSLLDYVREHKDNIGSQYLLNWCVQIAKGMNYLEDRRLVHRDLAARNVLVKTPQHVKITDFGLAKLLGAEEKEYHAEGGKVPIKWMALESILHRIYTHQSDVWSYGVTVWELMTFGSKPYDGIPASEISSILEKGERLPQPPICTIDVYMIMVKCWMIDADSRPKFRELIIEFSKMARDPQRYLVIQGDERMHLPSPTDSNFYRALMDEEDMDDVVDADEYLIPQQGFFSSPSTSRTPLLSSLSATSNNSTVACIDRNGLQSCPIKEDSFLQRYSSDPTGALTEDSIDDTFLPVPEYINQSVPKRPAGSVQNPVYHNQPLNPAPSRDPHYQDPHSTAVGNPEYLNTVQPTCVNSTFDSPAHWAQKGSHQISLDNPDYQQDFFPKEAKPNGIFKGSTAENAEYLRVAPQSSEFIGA
T1 sequence (P00533 25-1210 T790M/C797S/L858R): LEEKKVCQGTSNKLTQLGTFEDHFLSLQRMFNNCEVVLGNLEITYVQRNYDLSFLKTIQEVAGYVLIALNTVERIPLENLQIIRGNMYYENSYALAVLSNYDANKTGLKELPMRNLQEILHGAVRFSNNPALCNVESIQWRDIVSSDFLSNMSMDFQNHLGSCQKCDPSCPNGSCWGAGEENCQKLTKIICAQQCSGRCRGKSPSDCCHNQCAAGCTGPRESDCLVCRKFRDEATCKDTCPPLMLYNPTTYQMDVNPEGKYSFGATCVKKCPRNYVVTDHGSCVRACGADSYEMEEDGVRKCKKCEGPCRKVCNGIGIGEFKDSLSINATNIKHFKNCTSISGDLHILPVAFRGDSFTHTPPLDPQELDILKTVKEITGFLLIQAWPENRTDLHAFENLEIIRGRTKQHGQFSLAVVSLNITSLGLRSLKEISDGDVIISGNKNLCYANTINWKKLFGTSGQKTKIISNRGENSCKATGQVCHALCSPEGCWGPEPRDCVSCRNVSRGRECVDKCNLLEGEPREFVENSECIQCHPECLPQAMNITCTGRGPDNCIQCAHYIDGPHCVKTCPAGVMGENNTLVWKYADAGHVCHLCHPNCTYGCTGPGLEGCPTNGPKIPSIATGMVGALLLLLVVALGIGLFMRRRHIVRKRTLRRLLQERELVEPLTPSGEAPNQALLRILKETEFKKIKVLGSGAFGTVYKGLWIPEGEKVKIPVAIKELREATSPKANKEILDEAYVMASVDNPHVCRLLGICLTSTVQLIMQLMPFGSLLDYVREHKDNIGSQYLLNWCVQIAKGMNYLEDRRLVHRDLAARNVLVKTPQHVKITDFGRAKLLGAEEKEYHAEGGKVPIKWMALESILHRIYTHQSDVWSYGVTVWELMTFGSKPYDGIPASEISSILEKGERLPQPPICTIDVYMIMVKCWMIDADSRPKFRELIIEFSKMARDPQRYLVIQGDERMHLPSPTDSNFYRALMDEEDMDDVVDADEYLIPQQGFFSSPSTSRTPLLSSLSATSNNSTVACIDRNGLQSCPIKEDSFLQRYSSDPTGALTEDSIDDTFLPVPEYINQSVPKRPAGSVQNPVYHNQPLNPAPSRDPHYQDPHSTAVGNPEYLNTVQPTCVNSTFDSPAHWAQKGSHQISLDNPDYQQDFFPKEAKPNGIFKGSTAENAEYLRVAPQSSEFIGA

Structure (SMILES) | Degradation H1975 # 28 DTC [1] | Degradation H1975 # 25-LTC [2]
Cc1cc2cc(n1)-c1cnn(C)c1OC[C@H]1C[C@@H](CN3/C(=N/C2=O)Nc2ccc(N4CCN([C@H]5CCN(c6ccc(C7CCC(=O)NC7=O)nc6C)C[C@H]5F)CC4)cc23)C1 (stereo partly drawn) [Example 19, 3-(5-((3R,4S)-4-(4-((7^1s,7^3R,E)-1^1,2^6-dimethyl-3-oxo-5^2,5^3-dihydro-1^1H,5^1H-9-oxa-4-aza-5(2,1)-benzo[d]imidazola-2(2,4)-pyridina-1(4,5)-pyrazola-7(1,3)-cyclobutanacyclononaphane-5^6-yl)piperazin-1-yl)-3-fluoropiperidin-1-yl)-6-methylpyridin-2-yl)piperidine-2,6-dione] | 92.8 | 92.2
COC[C@@H]1CN(c2ccc3c(c2)N2C[C@H]4C[C@@H](COc5c(cnn5C)-c5cc(cc(C)n5)C(=O)/N=C/2N3)C4)CCN1C1CCN(c2cc(F)c([C@H]3CCC(=O)NC3=O)c(F)c2)CC1 [Example 20, (R)-3-(4-(4-((S)-4-((7^1s,7^3R,E)-1^1,2^6-dimethyl-3-oxo-5^2,5^3-dihydro-1^1H,5^1H-9-oxa-4-aza-5(2,1)-benzo[d]imidazola-2(2,4)-pyridina-1(4,5)-pyrazola-7(1,3)-cyclobutanacyclononaphane-5^6-yl)-2-(methoxymethyl)piperazin-1-yl)piperidin-1-yl)-2,6-difluorophenyl)piperidine-2,6-dione] | 89.8 | 92.5
Cc1cc2cc(n1)-c1cnn(C)c1OC[C@H]1C[C@@H](CN3/C(=N/C2=O)Nc2ccc(N4CCN(C5CCN(c6ccc(C7CCC(=O)NC7=O)nc6C)CC5)CC4)cc23)C1 (some centres unmarked) [Example 21, 3-(5-(4-(4-((7^1s,7^3s,E)-1^1,2^6-dimethyl-3-oxo-5^2,5^3-dihydro-1H,5^1H-9-oxa-4-aza-5(2,1)-benzo[d]imidazola-2(2,4)-pyridina-1(4,5)-pyrazola-7(1,3)-cyclobutanacyclononaphane-5^6-yl)piperazin-1-yl)piperidin-1-yl)-6-methylpyridin-2-yl)piperidine-2,6-dione] | 91.5 | 94.0
Cc1cc2cc(n1)-c1cnn(C)c1OC[C@H]1C[C@@H](CN3/C(=N/C2=O)Nc2ccc(N4CCN(C5CCN(c6ccc(C7CCC(=O)NC7=O)nc6C)CC5)CC4=O)cc23)C1 (some centres unmarked) [Example 22, 3-(5-(4-(4-((7^1s,7^3s,E)-1^1,2^6-dimethyl-3-oxo-5^2,5^3-dihydro-1^1H,5^1H-9-oxa-4-aza-5(2,1)-benzo[d]imidazola-2(2,4)-pyridina-1(4,5)-pyrazola-7(1,3)-cyclobutanacyclononaphane-5^6-yl)-3-oxopiperazin-1-yl)piperidin-1-yl)-6-methylpyridin-2-yl)piperidine-2,6-dione] | 89.5 | 91.7
COC[C@H]1CN(c2ccc3c(c2)N2C[C@H]4C[C@@H](COc5c(cnn5C)-c5cc(cc(C)n5)C(=O)/N=C/2N3)C4)CCN1C1CCN(c2cnc(C3CCC(=O)NC3=O)cc2C)CC1 (stereo partly drawn) [Example 23, 3-(5-(4-((R)-4-((7^1s,7^3S,E)-1^1,2^6-dimethyl-3-oxo-5^2,5^3-dihydro-1^1H,5^1H-9-oxa-4-aza-5(2,1)-benzo[d]imidazola-2(2,4)-pyridina-1(4,5)-pyrazola-7(1,3)-cyclobutanacyclononaphane-5^6-yl)-2-(methoxymethyl)piperazin-1-yl)piperidin-1-yl)-4-methylpyridin-2-yl)piperidine-2,6-dione] | 87.0 | 91.3
COC[C@H]1CN(c2ccc3c(c2)N2C[C@H]4C[C@@H](COc5c(cnn5C)-c5cc(cc(C)n5)C(=O)/N=C/2N3)C4)CCN1C1CCN(c2ccc(C3CCC(=O)NC3=O)nc2C)CC1 (stereo partly drawn) [Example 24, 3-(5-(4-((R)-4-((7^1s,7^3S,E)-1^1,2^6-dimethyl-3-oxo-5^2,5^3-dihydro-1^1H,5^1H-9-oxa-4-aza-5(2,1)-benzo[d]imidazola-2(2,4)-pyridina-1(4,5)-pyrazola-7(1,3)-cyclobutanacyclononaphane-5^6-yl)-2-(methoxymethyl)piperazin-1-yl)piperidin-1-yl)-6-methylpyridin-2-yl)piperidine-2,6-dione] | 88.0 | 91.7
Cc1cc2cc(n1)-c1cnn(C)c1OC[C@H]1C[C@@H](CN3/C(=N/C2=O)Nc2ccc(N4CCN(C5CCN(c6cc(F)c([C@H]7CCC(=O)NC7=O)c(F)c6)CC5)C(=O)C4)cc23)C1 [Example 25, (R)-3-(4-(4-(4-((7^1s,7^3s,E)-1^1,2^6-dimethyl-3-oxo-5^2,5^3-dihydro-1^1H,5^1H-9-oxa-4-aza-5(2,1)-benzo[d]imidazola-2(2,4)-pyridina-1(4,5)-pyrazola-7(1,3)-cyclobutanacyclononaphane-5^6-yl)-2-oxopiperazin-1-yl)piperidin-1-yl)-2,6-difluorophenyl)piperine-2,6-dione] | 89.9 | 83.4
Cc1cc2cc(n1)-c1cnn(C)c1OC[C@H]1C[C@@H](CN3/C(=N/C2=O)Nc2ccc(N4CCN(C5CCN(c6ccc(C7CCC(=O)NC7=O)nc6C)CC5)C(=O)C4)cc23)C1 (some centres unmarked) [Example 26, 3-(5-(4-(4-((7^1s,7^3s,E)-1^1,2^6-dimethyl-3-oxo-5^2,5^3-dihydro-1^1H,5^1H-9-oxa-4-aza-5(2,1)-benzo[d]imidazola-2(2,4)-pyridina-1(4,5)-pyrazola-7(1,3)-cyclobutanacyclononaphane-5^6-yl)-2-oxopiperazin-1-yl)piperidin-1-yl)-6-methylpyridin-2-yl)piperidine-2,6-dione] | 90.8 | 92.1
COC[C@H]1CN(c2ccc3c(c2)N2C[C@H]4C[C@@H](COc5c(cnn5C)-c5cc(cc(C)n5)C(=O)/N=C/2N3)C4)CCN1C1CCN(c2cc(F)c([C@H]3CCC(=O)NC3=O)c(F)c2)CC1 [Example 27, (R)-3-(4-(4-((R)-4-((7^1s,7^3S,E)-1^1,2^6-dimethyl-3-oxo-5^2,5^3-dihydro-1^1H,5^1H-9-oxa-4-aza-5(2,1)-benzo[d]imidazola-2(2,4)-pyridina-1(4,5)-pyrazola-7(1,3)-cyclobutanacyclononaphane-5^6-yl)-2-(methoxymethyl)piperazin-1-yl)piperidin-1-yl)-2,6-difluorophenyl)piperidine-2,6-dione] | 84.7 | 89.6
Cc1cc2cc(n1)-c1cnn(C)c1OC[C@H]1C[C@@H](CN3/C(=N/C2=O)Nc2ccc(N4CCC(N5CCN(c6ccc(C7CCC(=O)NC7=O)nc6C)CC5)CC4)cc23)C1 (some centres unmarked) [Example 28, 3-(5-(4-(1-((7^1s,7^3s,E)-1^1,2^6-dimethyl-3-oxo-5^2,5^3-dihydro-1^1H,5^1H-9-oxa-4-aza-5(2,1)-benzo[d]imidazola-2(2,4)-pyridina-1(4,5)-pyrazola-7(1,3)-cyclobutanacyclononaphane-5^6-yl)piperidin-4-yl)piperazin-1-yl)-6-methylpyridin-2-yl)piperidine-2,6-dione] | 79.8 | 92.1
